“And” between values parts separate entries of the source, which are not always exact repeats. Equal entries are not always repeated. Structures can show the parent of a compound that is named as a salt.
Test system: dopamine transporter protein over the norepinephrine transporter protein
Details: selectivity for dopamine transporter protein over norepinephrine transporter protein; cited from earlier work

| SMILES | DAT/NET Ki ratio |
| --- | --- |
| COC(=O)C(c1ccccc1)C1CCCCN1 (stereo not drawn) [Methylphenidate] | 0.1 |

Test system: not given
Details: not given

| SMILES | melting point |
| --- | --- |
| CN1Cc2cc(OCc3ccccc3)ccc2C(c2ccccc2)C1 (stereo not drawn) | 155 to 156 °C |
| CN1Cc2c(CO)cccc2C(c2ccccc2)C1 (stereo not drawn) | 144 to 146 °C |
| COc1c(C)ccc2c1CN(C)CC2c1ccccc1 (stereo not drawn) | 130 to 131 °C |
| CN1Cc2cc(C(F)(F)F)ccc2C(c2ccccc2)C1 (stereo not drawn) | 257 to 275 °C |
| CNCc1ccc2c(c1F)CN(C)CC2c1ccccc1 (stereo not drawn) (as salt: HCl) | 185 to 205 °C |
| Cc1ccc2c(c1O)CN(C)CC2c1ccccc1 (stereo not drawn) | 260 to 261 °C |
| CN1Cc2ccccc2C(c2cc(F)cc(F)c2)C1 (stereo not drawn) (as salt: HCl) | 230 to 233 °C and 230 to 235 °C |
| Cc1ccc2c(c1F)CN(C)CC2c1ccccc1 (stereo not drawn) (as salt: hydrochloride) | 215 to 216 °C |
| Cc1ccc2c(c1)CN(C)CC2c1ccc(F)c(C)c1 (stereo not drawn) | 174 to 175 °C |
| Cc1cc(F)c2c(c1)C(C)N(C)C(F)C2c1ccccc1 (stereo not drawn) (as salt: HCl) | 194 to 197 °C (dec.) |
| CNCc1cccc2c1CN(C)CC2c1ccccc1 (stereo not drawn) | 278 to 282 °C |
| Cc1ccc2c(c1)C(C)N(C)CC2c1ccccc1 (stereo not drawn) | 87 to 89 °C |
| CN1Cc2cc(OC(F)(F)F)ccc2C(c2ccccc2)C1 (stereo not drawn) | 150 to 151 °C (dec.) |
| CN1Cc2cc(CO)ccc2C(c2ccccc2)C1 (stereo not drawn) (as salt: HCl) | 237 to 240 °C (dec.) |
| CN1Cc2cc(Oc3ccccc3)ccc2C(c2ccccc2)C1 (stereo not drawn) | 175 to 176 °C (dec.) |
| FCc1ccc2c(c1CF)CN(CF)CC2c1ccccc1 (stereo not drawn) | 108 to 113 °C |
| Cc1c(F)ccc2c1CN(C)CC2c1ccccc1 (stereo not drawn) | 185 to 186 °C |
